{
  "source": "patent US20140155397A1",
  "about": "“EMT SIGNATURES AND PREDICTIVE MARKERS AND METHOD OF USING THE SAME” (Board of Regents, priority 2011, published 2014)",
  "key": {"NSCLC cell lines": {"tested_on": "NSCLC cell lines", "experiment": "Drug sensitivity (growth inhibition, MTS assay) of epithelial versus mesenchymal NSCLC cell lines", "format": "cell-based", "source_text": "(§1) Average values were used for analysis as described. […] Chou T. C., et al., Quantitative Analysis of Dose-Effect Relationships: The Combined Effects of Multiple Drugs or Enzyme Inhibitors. Adv Enzyme Regul.\nThe EMT signature was derived in 54 DNA fingerprinted NSCLC cell lines profiled on Affymetrix U133A, B, and Plus2.0 arrays and tested on the Illumina WGv2 and WGv3 platforms and in an independent set of head and neck cancer lines (HNC). E-cadherin and other protein levels were quantified by reverse phase protein array and correlated with the first principal component of the EMT signature. IC50s were determined for NSCLC cell lines by MTS assay. Response to erlotinib was evaluated in patients treated in the BATTLE clinical trial using eight-week disease […] and progression free survival."}, "A549": {"tested_on": "A549", "experiment": "Proliferation, CellTiter-Glo Luminescent Cell Viability", "format": "cell-based", "settings": "Homo sapiens, single agent", "source_text": "as §1"}, "Calu-1": {"tested_on": "Calu-1", "experiment": "Proliferation, CellTiter-Glo Luminescent Cell Viability", "format": "cell-based", "settings": "Homo sapiens, single agent", "source_text": "as §1"}, "H1299": {"tested_on": "H1299", "experiment": "Proliferation, CellTiter-Glo Luminescent Cell Viability", "format": "cell-based", "settings": "Homo sapiens, NCI-H1299, single agent", "source_text": "as §1"}, "H157": {"tested_on": "H157", "experiment": "Proliferation, CellTiter-Glo Luminescent Cell Viability", "format": "cell-based", "settings": "Homo sapiens, NCI-H157, single agent", "source_text": "as §1"}, "H2882": {"tested_on": "H2882", "experiment": "Proliferation, CellTiter-Glo Luminescent Cell Viability", "format": "cell-based", "settings": "NCI-H2882, single agent", "source_text": "as §1"}, "H460": {"tested_on": "H460", "experiment": "Proliferation, CellTiter-Glo Luminescent Cell Viability", "format": "cell-based", "settings": "Homo sapiens, NCI-H460, single agent", "source_text": "as §1"}, "[1]": {"tested_on": "Cells expressing high levels of Axl", "experiment": "Proliferation of six mesenchymal cell lines expressing high levels of Axl (summary)", "format": "cell-based", "settings": "single agent", "source_text": "as §1"}, "NSCLC patients": {"tested_on": "NSCLC patients", "experiment": "BATTLE clinical trial, 8-week disease control and progression-free survival", "format": "in vivo, human", "source_text": "BATTLE (Biomarker-integrated Approaches of Targeted Therapy for Lung Cancer Elimination) was a randomized, biomarker-based clinical trial for patients with recurrent or metastatic NSCLC in the second-line setting (Trial registration ID: NCT00409968). Kim E. S. H. R., The BATTLE Trial: Personalizing Therapy for Lung Cancer, Cancer Discovery 1:43-51 (2011). mRNA from tumors obtained via core-needle biopsy at enrollment were profiled on Human Gene 1.0 ST array, Affymetrix. Array results were deposited in the GEO repository (GSE33072).\nWe used pretreatment gene expression profiles (Affymetrix […]) from 101 chemo-refractory patients in our Biomarkers-Integrated Approaches of Targeted Therapy for Lung Cancer Elimination (BATTLE) treated with E, E+bexarotene (EB), sorafenib (S), or vandetanib (V). 24 cases of with EGFR & KRAS tumors treated with E or EB were compared to train the signature (two-sided t-test), using the primary end-point of the trial[8-week disease control (8 with DC)]. Principal component (PC) analysis and a logistic regression model were used to develop the signature. Gene expression profiles from 108 NSCLC cell lines (Illumina), with available E IC50 (N=94) and DNA methylation profiling (N=66, Illumina), were used for in vitro studies."}},
  "note": "Where two headings read alike, the source gives them in different places.",
  "data": [
    {"molecule": "CNC(=O)c1cc(Oc2ccc(NC(=O)Nc3ccc(Cl)c(C(F)(F)F)c3)cc2)ccn1", "note": "[sorafenib]", "values": [
      {"measurement": "Fold higher mean IC50 in mesenchymal versus epithelial cell lines", "setting": "NSCLC cell lines; all NSCLC cell lines", "result": "not more resistant"}
    ]},
    {"molecule": "C#Cc1cccc(Nc2ncnc3cc(OCCOC)c(OCCOC)cc23)c1", "note": "[Erlotinib, erlotinib]", "values": [
      {"measurement": "Sensitivity of mesenchymal cells", "setting": "NSCLC cell lines; SGI-7079 versus erlotinib, p<0.001 by Wilcoxon test", "result": "uniformly resistant"},
      {"measurement": "Fold higher mean IC50 in mesenchymal versus epithelial cell lines", "setting": "NSCLC cell lines; all NSCLC cell lines", "result": 3.7, "unit": "fold"},
      {"measurement": "Fold higher mean IC50 in mesenchymal versus epithelial cell lines", "setting": "NSCLC cell lines; subset with wild-type EGFR and wild-type KRAS", "result": 2, "unit": "fold"},
      {"measurement": "IC50", "setting": "A549", "result": 13.5, "unit": "µM"},
      {"measurement": "IC50", "setting": "Calu-1", "result": "> 100", "unit": "µM"},
      {"measurement": "IC50", "setting": "H1299", "result": "> 100", "unit": "µM"},
      {"measurement": "IC50", "setting": "H157", "result": 48.5, "unit": "µM"},
      {"measurement": "IC50", "setting": "H2882", "result": "> 100", "unit": "µM"},
      {"measurement": "IC50", "setting": "H460", "result": "> 100", "unit": "µM"},
      {"measurement": "IC50", "setting": "[1]; read-out: IC50 range across cell lines", "result": "≥ 13.5", "unit": "µM"},
      {"measurement": "IC50", "setting": "[1]; read-out: Mean IC50 across cell lines", "result": 77, "unit": "µM"},
      {"measurement": "8-week DC rate", "setting": "NSCLC patients; 5-gene signature-negative group", "result": 0, "unit": "%"},
      {"measurement": "8-week DC rate", "setting": "NSCLC patients; 5-gene signature-positive group", "result": 83, "unit": "%"},
      {"measurement": "Median PFS", "setting": "NSCLC patients; signature-negative group", "result": 7.2, "unit": "weeks"},
      {"measurement": "Median PFS", "setting": "NSCLC patients; signature-positive group", "result": 12.5, "unit": "weeks"},
      {"measurement": "Progression-free survival hazard ratio", "setting": "NSCLC patients; signature-positive versus signature-negative group, 95% CI 0.03-0.46", "result": 0.12},
      {"measurement": "Patients with 8-week disease control (DC)", "setting": "NSCLC patients; wildtype EGFR and KRAS patients with mesenchymal signatures", "result": "1/5"}
    ]},
    {"molecule": "CS(=O)(=O)N1CCN(Cc2cc3nc(-c4cccc5[nH]ncc45)nc(N4CCOCC4)c3s2)CC1", "note": "[GDC0941]", "values": [
      {"measurement": "Fold higher mean IC50 in mesenchymal versus epithelial cell lines", "setting": "NSCLC cell lines; all NSCLC cell lines", "result": 1.9, "unit": "fold"}
    ]},
    {"molecule": "Nc1ncnc2c1nc(N)n2[C@@H]1O[C@H](CO)[C@@H](O)[C@H]1O", "note": "[8-amino-adenosine]", "values": [
      {"measurement": "Fold higher mean IC50 in mesenchymal versus epithelial cell lines", "setting": "NSCLC cell lines; all NSCLC cell lines", "result": 1.7, "unit": "fold"}
    ]},
    {"molecule": "NC1(c2ccc(-c3nc4ccn5c(=O)[nH]nc5c4cc3-c3ccccc3)cc2)CCC1", "note": "[MK2206]", "values": [
      {"measurement": "Fold higher mean IC50 in mesenchymal versus epithelial cell lines", "setting": "NSCLC cell lines; all NSCLC cell lines", "result": 1.5, "unit": "fold"}
    ]}
  ]
}
